Where two headings read alike, the source gives them in different places.

Experiment [1] relates to RAW264.7 cells. The experiment can be described thus: Proliferation of RAW264.7 cells (CTG assay). It counts as cell-based. The conditions noted are these: RAW264.7 (CSF-1 independent, negative control), 3 days. The method, then:
(§1) Two syngeneic cell lines M-NFS-60 and RAW264.7 and engineered BaF3 hCSFIR cell line were starved and then tested with CBT-102 and other test articles for 3 days in the temperature of 37° C., 5% CO2 and 95% humidity. The cell viability was then detected using CTG assay. The software of GraphPad Prism was used to calculate IC50.
(§2) CSF-1 dependent mouse myeloid M-NFS-60 cells were employed as target cells while a CSF-1 independent cell line Raw 264.7 was used as a negative control. In addition to CBT-102, the study also included 3 CSF-1R inhibitors: GW2580, BLZ945 and Pexidartinib.

Experiment [2] deals with M-NFS-60 cells. As to the kind of experiment: Proliferation of M-NFS-60 cells (CTG assay). It counts as cell-based, mouse. Conditions: M-NFS-60 (CSF-1 dependent), 3 days. The method, then:
as §1, §2

Experiment [3] relates to BaF3 hCSF1R cell line. The experiment can be described thus: Proliferation of engineered BaF3 hCSF1R cell line (CTG assay). Type of experiment: cell-based. The method, then: as §1, §2

For the compound `CNC(=O)c1cc(Oc2ccc3nc(N[C@@H]4CCCC[C@H]4O)sc3c2)ccn1` [BLZ945], the half-inhibitory concentration (IC50) was over 30000 nM in experiment [1] (Mus musculus, 72 h) and 3020 nM in experiment [2] (Mus musculus, 72 h). The Max inh. was determined as 24.65% in experiment [1] and 99.08% in experiment [2].

With `COc1ccc(COc2ccc(Cc3cnc(N)nc3N)cc2OC)cc1` [GW2580], the 50% inhibitory concentration (IC50) in experiment [1] was 4060 nM; in experiment [3] (engineered BaF3 hCSF1R, 3 days, CTG, read-out: IC50), 279 nM; in experiment [2], 1140 nM. For the same compound, the Max inh. came out at 81.91% in experiment [1] and 99.02% in experiment [2].

In the case of `FC(F)(F)c1ccc(CNc2ccc(Cc3c[nH]c4ncc(Cl)cc34)cn2)cn1` [PLX3397], the IC50 amounted to 16400 nM in experiment [1] (Mus musculus, 72 h) and 348 nM in experiment [2] (Mus musculus, 72 h). Besides, the Max inh. in experiment [1] is listed as 95.16%; in experiment [2], 99.32%.

Regarding `Cc1cc2cc(Oc3ccnc(Nc4cccc(CS(=O)(=O)NCCN(C)C)c4)n3)ccc2[nH]1` [sulfatinib], in experiment [3] (Mus musculus, BaF3, 72 h), inhibition was half-maximal at 1330 nM (IC50).

In general, IC50 refers to the point on the concentration scale where inhibition reaches its midpoint.
